# Reference: patent US9914727B2, “Factor IXa inhibitors” (Merck Sharp & Dohme Corp., priority 2012, dated 2018)
# Molecular target: Factor IXa (Homo sapiens, UniProt P00740)
# Experiment: Determination of inhibitory activity against Factor IXa (FIXa Low Enzyme; cleavage of fluorescent peptide CH3SO2-D-CHG-Gly-Arg-AFC)
# Assay type: biochemical
# Conditions: fluorogenic peptide substrate CH3SO2-D-CHG-Gly-Arg-AFC.AcOH; excitation 405, emission 510
# Method: Determination of Inhibitory Activity Against Factor IXa
# Formation of a clot to stem bleeding at a site of blood vessel injury involves the coordinated activity of a group of plasma proteins that initiate and propagate fibrin formation and subsequently protect fibrin from premature degradation. Factor IX is a key component of the plasma system that forms a fibrin clot at a site of vascular injury. The activity of Factor IXa is measured by monitoring the cleavage of the fluorescent peptide, CH3SO2-D-CHG-Gly-Arg-AFC.AcOH (“CHG” is cyclohexyl-glycine and “AFC” is trifluoro aminomethyl coumarin). Factor IXa cleaves the […] bond between Arg and AFC, thereby releasing the AFC fluorophore. The free AFC can be detected with a fluorescence detector at an excitation wavelength of 405 nm and emission wavelength of 510 nm.
# Chain of Factor IXa (P00740 227-461 limits assumed): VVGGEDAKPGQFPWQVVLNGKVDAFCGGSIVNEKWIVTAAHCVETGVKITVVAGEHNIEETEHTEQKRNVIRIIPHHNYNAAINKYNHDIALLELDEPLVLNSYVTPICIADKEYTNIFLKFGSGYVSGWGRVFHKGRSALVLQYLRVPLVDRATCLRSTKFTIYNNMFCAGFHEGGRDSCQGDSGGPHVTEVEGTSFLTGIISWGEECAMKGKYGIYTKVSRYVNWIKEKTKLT
# Chain of Factor IXa (P00740 47-191 partner limits assumed): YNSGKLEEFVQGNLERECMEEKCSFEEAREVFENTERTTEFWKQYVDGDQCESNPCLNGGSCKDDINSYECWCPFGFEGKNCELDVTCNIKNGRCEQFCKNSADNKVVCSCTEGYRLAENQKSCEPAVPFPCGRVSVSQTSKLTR
row,FIXa Low Enzyme [nM],SMILES
1,102.1,"C[C@]1([C@@H](O)c2nc(=O)c3c(ccc4c(N)nsc43)[nH]2)OCCN(c2ccn(-c3ccc(=O)n(C(F)F)c3)n2)C1=O [Example 1, (R)-2-((S)-(3-Amino-9-oxo-6,9-dihydroisothiazolo[5,4-f]quinazolin-7-yl)(hydroxy)methyl)-4-(1-(1-(difluoromethyl)-6-oxo-1,6-dihydropyridin-3-yl)-1H-pyrazol-3-yl)-2-methylmorpholin-3-one]"
2,8.597,"C[C@]1([C@@H](O)c2nc(=O)c3c(ccc4c(N)nsc43)[nH]2)OCCN(c2ccn(-c3ccnnc3)n2)C1=O [Example 2, (R)-2-((S)-(3-Amino-9-oxo-6,9-dihydroisothiazolo[5,4-f]quinazolin-7-yl)(hydroxy)methyl)-2-methyl-4-(1-(pyridazin-4-yl)-1H-pyrazol-3-yl)morpholin-3-one]"
3,577.9,"C[C@](O)(c1nc(=O)c2c(ccc3c(N)nsc32)[nH]1)[C@H]1OCCN(c2cccc(C(F)(F)F)n2)C1=O [Example 3, (R)-2-((S)-1-(3-Amino-9-oxo-6,9-dihydroisothiazolo[5,4-f]quinazolin-7-yl)-1-hydroxyethyl)-4-(6-(trifluoromethyl)pyridin-2-yl)morpholin-3-one]"
4,352.7,"CC(C)(O)c1cccc(N2CCO[C@](C)([C@@H](O)c3nc(=O)c4c(ccc5c(N)nsc54)[nH]3)C2=O)n1 [Example 4, (R)-2-((S)-(3-Amino-9-oxo-6,9-dihydroisothiazolo[5,4-f]quinazolin-7-yl)(hydroxy)methyl)-4-(6-(2-hydroxypropan-2-yl)pyridin-2-yl)-2-methylmorpholin-3-one]"
